Among the data in the supplement of paper PMC10307832 are relative viability values, retold here.

Compound in the assay “BAM7 + Navitoclax”: CCOC1=CC=CC=C1N=NC2=C(NN(C2=O)C3=NC(=CS3)C4=CC=CC=C4)C [BAM7] + CC1(C)CCC(c2ccc(Cl)cc2)=C(CN2CCN(c3ccc(C(=O)NS(=O)(=O)c4ccc(N[C@H](CCN5CCOCC5)CSc5ccccc5)c(S(=O)(=O)C(F)(F)F)c4)cc3)CC2)C1 [Navitoclax] (partner 0.5 µM)
Nature of the assay: relative viability (nuclei count vs DMSO), 5 days (fraction); higher = more cells survive. An outline of the steps:
(§1)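 Lung cancer cell lines in 1536-well plates got either a single drug or a fixed anchor-drug dose together with five library-drug doses (not always all listed) in √10 steps, by pin tool, on the day after seeding. Nuclei were counted after 5 days, and relative viability is the treated-to-vehicle ratio of nuclei counts. Values are medians of duplicate plates.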

Compound in assay [1]: CCn1c(-c2nonc2N)nc2c(C#CC(C)(C)O)ncc(OC[C@H]3CCCNC3)c21 + COc1cc2c(Oc3ccc(NC(=O)C4(C(=O)Nc5ccc(F)cc5)CC4)cc3F)ccnc2cc1OCCCN1CCOCC1 [Foretinib] (partner 0.25 µM)
Described as above. The method, boiled down: as §1

For CAL-12T, the relative viability with BAM7 + Navitoclax (first compound 0.5 µM) was 1.1; in the assay with BAM7 + Navitoclax (first compound 5 µM), 1.2; with BAM7 + Navitoclax (first compound 15.81 µM), 1.14; with BAM7 + Navitoclax (first compound 50 µM), 1.26; in assay [1] (first compound 0.01 µM) it was 1.15; in assay [1] (first compound 0.03162 µM) it was 1.05. The results for the relative viability in assay [1] (first compound 0.1 µM), in assay [1] (first compound 0.3162 µM) and in assay [1] (first compound 1 µM) were 1.05, 1.05 and 1.07, respectively.
EBC-1: the relative viability was found to be 0.403 with BAM7 + Navitoclax (first compound 0.5 µM); 0.389 in the assay with BAM7 + Navitoclax (first compound 5 µM); 0.382 with BAM7 + Navitoclax (first compound 15.81 µM); 0.423 in the assay with BAM7 + Navitoclax (first compound 50 µM); 0.106 in assay [1] (first compound 0.01 µM); 0.0912 in assay [1] (first compound 0.03162 µM). For the same cell line, the figures for the relative viability in assay [1] (first compound 0.1 µM), in assay [1] (first compound 0.3162 µM) and in assay [1] (first compound 1 µM) were 0.0934, 0.102 and 0.0999, respectively.
